Tests used:
[1] = Oral bioavailability in rat; format: ADME, organism-based; conditions: in vivo
[2] = Half life in rat; format: ADME; conditions: in vivo
[3] = target: T1, Diacylglycerol O-acyltransferase 2 (Homo sapiens, UniProt Q96PD7); test: Inhibition of recombinant FLAG-tagged human DGAT2 expressed in SF9 cells after 1 hr by TopCount assay
T1 sequence (Q96PD7 whole entry): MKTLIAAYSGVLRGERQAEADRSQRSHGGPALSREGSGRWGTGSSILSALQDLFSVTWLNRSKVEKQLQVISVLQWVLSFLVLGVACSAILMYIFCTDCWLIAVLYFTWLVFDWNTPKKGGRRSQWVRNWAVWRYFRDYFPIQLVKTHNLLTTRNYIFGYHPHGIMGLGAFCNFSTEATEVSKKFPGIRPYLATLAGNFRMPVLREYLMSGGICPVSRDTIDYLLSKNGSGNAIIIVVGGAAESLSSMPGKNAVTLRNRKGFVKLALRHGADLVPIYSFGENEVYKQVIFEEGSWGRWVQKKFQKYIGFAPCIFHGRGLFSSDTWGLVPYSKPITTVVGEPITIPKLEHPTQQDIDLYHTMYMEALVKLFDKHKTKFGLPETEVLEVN

[4] = target: T2, Diacylglycerol O-acyltransferase 1 (Homo sapiens, UniProt O75907); test: Inhibition of recombinant FLAG-tagged human DGAT1 expressed in SF9 cells after 1 hr by TopCount assay
T2 sequence (O75907 whole entry): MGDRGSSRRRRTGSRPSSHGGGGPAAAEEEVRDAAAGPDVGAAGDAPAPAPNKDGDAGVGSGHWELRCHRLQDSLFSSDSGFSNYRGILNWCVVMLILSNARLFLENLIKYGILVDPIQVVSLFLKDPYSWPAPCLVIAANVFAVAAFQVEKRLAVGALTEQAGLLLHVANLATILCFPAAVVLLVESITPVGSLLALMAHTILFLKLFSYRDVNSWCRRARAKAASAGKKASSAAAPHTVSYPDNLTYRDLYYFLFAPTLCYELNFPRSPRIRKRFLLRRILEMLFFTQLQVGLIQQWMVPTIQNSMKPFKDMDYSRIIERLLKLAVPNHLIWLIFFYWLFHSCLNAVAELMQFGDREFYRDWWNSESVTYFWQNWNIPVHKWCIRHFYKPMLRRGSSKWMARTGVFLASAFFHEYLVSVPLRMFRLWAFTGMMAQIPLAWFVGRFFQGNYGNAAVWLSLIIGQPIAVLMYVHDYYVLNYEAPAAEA

bioavailability [1] [%]	half-life [2] [h]	IC50 [3] [µM]	IC50 [4] [µM]	SMILES
10	3.5			CC(C)c1onc(-c2c(Cl)cccc2Cl)c1COc1ccc(/C=C/c2cccc(C(=O)O)c2)c(Cl)c1
		0.08	> 300	Cc1nc(C)c(-c2ccc(C3CCC(CC(=O)O)CC3)cc2)nc1C(N)=O (centres undefined) [AZD-7687]
